Assay [1] deals with Delta-type opioid receptor (Homo sapiens, UniProt P41143). Put plainly: Counterscreen for agonists of heterodimerization of the mu 1 (OPRM1) and delta 1 (OPRD1) opioid receptors: Luminescence-based cell-based high throughput dose response assay to identify agonists of OPRD1 homodimerization. [Related pubchem assays (depositor defined):AID504326, AID504355, AID504692, AID504904, AID504905]. In kind it is functional.

In assay [2] the target is DNA repair and recombination protein RAD54-like (Homo sapiens, UniProt Q92698). Put plainly: inhibitors of human RAD54 branch migration, confirmation, biochemical, fluorescence, cherry-picked samples, dose series (AID 651657). The class given is functional.
Chain of DNA repair and recombination protein RAD54-like (Q92698 whole entry): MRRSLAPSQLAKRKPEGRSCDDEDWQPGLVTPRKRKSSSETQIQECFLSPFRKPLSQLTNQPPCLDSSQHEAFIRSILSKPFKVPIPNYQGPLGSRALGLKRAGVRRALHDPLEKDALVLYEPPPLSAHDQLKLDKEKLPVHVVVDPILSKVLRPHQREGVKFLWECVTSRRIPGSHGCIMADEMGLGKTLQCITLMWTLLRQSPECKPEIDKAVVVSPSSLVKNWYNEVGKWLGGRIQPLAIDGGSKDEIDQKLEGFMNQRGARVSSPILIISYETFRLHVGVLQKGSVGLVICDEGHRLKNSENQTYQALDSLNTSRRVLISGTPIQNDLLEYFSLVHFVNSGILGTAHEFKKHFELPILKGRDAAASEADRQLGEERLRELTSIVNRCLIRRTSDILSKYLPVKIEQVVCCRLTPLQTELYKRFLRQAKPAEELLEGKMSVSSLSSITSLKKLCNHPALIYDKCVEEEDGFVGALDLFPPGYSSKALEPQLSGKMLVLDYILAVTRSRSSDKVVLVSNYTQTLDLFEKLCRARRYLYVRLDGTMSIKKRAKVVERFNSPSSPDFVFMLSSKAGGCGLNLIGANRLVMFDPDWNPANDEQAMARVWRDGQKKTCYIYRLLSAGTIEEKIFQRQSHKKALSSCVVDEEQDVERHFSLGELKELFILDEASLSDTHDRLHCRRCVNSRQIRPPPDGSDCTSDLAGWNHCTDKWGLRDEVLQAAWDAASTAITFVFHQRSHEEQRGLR
In the next assay the test system is INS1. The assay is described as follows: beta cell apoptosis inhibitors, cytokine rescue, dose response, luminescence, retest (AID 449756).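 Also: cell death triggered by IL-1 beta plus TNF-alpha plus IFN-gamma mixture; protective hits raise ATP signal compared with cytokine alone wells.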 In kind it is functional, cell-based. Particulars: Rattus norvegicus.
The target in assay [3] is T1, DNA repair protein RAD52 homolog (Homo sapiens, UniProt P43351).
T1 sequence (P43351 whole entry): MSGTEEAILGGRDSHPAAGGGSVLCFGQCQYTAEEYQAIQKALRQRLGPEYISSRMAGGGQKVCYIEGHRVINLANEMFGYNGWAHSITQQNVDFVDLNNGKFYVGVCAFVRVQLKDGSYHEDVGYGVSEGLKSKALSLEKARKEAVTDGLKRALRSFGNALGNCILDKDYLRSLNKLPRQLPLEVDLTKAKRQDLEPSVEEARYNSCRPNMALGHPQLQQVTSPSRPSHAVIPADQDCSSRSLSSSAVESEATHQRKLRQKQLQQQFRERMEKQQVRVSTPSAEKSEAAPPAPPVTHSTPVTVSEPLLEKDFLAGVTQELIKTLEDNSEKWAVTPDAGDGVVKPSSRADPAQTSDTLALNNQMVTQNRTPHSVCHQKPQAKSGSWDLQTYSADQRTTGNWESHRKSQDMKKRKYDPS
In kind it is functional, biochemical.

Assay [4] addresses T2, Mu-type opioid receptor (Homo sapiens, UniProt P35372). Put plainly: Counterscreen for agonists of heterodimerization of the mu 1 (OPRM1) and delta 1 (OPRD1) opioid receptors: Luminescence-based cell-based high throughput dose response assay to identify agonists of OPRM1 homodimerization. In kind it is functional. (In general: Counterscreens check selectivity or assay interference.)

Assay [5] in a line: MDA-MB-231 cell growth inhibition, dose response, cytotoxicity control for RAD54 inhibitor project, CellTiter-Glo luminescence, cherry-pick (AID 651692). The class given is functional, cell-based.
In another assay the test system is Vero. The assay is described as follows: host cell cytotoxicity of antiviral hits, dose response, cytotoxicity control for West Nile virus antiviral project, secondary assay (AID 1650). In kind it is functional. The conditions noted are these: Chlorocebus sabaeus.
Assay [6] addresses 5-hydroxytryptamine receptor 5A (Homo sapiens, UniProt P47898). Put plainly: Counterscreen for agonists of OPRM1-OPRD1 heterodimerization: luminescence-based cell-based high throughput dose response assay to identify agonists of 5-hydroxytryptamine (serotonin) 5A receptor (HTR5A). [Related pubchem assays (depositor defined):AID504326, AID504355, AID504692, AID504904, AID504905]. The class given is functional.

The target of a further assay is Protein Wnt-3a (Mus musculus, UniProt P27467). Put plainly: Wnt3a-driven reporter signaling inhibition, dose response, selectivity assay for Gli-SUFU antagonist project, Wnt-LIGHT cells, luminescence (AID 651570).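 Also: Wnt-LIGHT reporter cells stimulated with conditioned medium from Wnt3a-producing cells.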 The class given is functional. Particulars: read-out: IC50_Mean.
Chain of Protein Wnt-3a (P27467 whole entry): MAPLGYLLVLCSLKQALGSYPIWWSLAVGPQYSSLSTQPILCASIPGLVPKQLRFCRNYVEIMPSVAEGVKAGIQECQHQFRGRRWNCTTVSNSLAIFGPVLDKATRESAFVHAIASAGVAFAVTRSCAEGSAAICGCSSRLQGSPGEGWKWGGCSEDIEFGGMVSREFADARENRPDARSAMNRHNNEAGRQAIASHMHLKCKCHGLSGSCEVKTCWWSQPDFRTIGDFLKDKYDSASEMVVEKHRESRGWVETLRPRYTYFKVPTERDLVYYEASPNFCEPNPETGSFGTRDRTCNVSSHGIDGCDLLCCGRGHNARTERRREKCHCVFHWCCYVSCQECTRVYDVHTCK
A short description of assay [7]: control 3'UTR Renilla luciferase suppression, dose response, counter-screen for Shn3 inhibitor project, cell-based, Clone20-Shn3RL, cherry-picked (AID 624133). The class given is functional.
A short description of assay [8]: Shn3 3'UTR reporter inhibitors, dose response, cell-based, Clone20 osteoblasts, firefly luciferase, cherry-picked (AID 624132).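 Also: firefly luciferase luminescence from reporter carrying the Shn3 3'UTR in osteoblasts.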 In kind it is functional.
The target in assay [9] is Matrix metalloproteinase-14 (Homo sapiens, UniProt P50281). Put plainly: Dose Response confirmation of uHTS hits for a small molecule inhibitors of MT1-MMP activation in a fluorescence assay set 1. The class given is functional.
Assay [10] is described as follows: HepG2 cell cytotoxicity, dose response, cytotoxicity control for Shn3 inhibitor project, CellTiter-Glo, cherry-picked (AID 624134). The class given is functional, cell-based. On the technique in general: Cellular ATP, detected with luciferase, serves as a proxy for viable cell number.
Assay [11] has as its target T3, Probable nicotinate-nucleotide adenylyltransferase (Staphylococcus aureus (strain N315), UniProt P65502). In kind it is functional, Staphylococcus aureus subsp. aureus N315.
In assay [12] the target is T3, Probable nicotinate-nucleotide adenylyltransferase. In kind it is functional, Staphylococcus aureus subsp. aureus N315. Particulars: read-out: IC50_Mean.
Assay [13] addresses 5-hydroxytryptamine receptor 2A (Mus musculus, UniProt P35363). In kind it is functional, cell-based.
Assay [14] addresses T2, Mu-type opioid receptor. In kind it is functional, cell-based.
Assay [15] has as its target T4, Nuclear receptor subfamily 0 group B member 1 (Homo sapiens, UniProt P51843).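 Also: HEK293T cells transfected with SF-1 and DAX-1 plus StAR promoter luciferase reporter.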
T4 sequence (P51843 whole entry): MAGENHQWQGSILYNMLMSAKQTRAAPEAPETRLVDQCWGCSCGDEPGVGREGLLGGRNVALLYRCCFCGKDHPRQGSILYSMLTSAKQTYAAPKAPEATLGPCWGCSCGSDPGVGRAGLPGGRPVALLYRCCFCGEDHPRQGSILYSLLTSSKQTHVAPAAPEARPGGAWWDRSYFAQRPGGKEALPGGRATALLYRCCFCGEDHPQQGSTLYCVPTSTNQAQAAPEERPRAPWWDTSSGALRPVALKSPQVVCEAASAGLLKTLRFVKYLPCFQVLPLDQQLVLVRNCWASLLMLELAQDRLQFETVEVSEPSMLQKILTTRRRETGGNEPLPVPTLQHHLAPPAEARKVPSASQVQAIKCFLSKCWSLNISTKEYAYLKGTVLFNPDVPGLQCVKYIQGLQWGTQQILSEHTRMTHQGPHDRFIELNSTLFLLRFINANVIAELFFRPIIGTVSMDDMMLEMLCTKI
In kind it is functional, cell-based.

Another assay can be described thus: cells. The class given is functional, cell-based.
Assay [16] can be described thus: ADAM10 protease inhibitors, dose response, selectivity assay for ADAM17 exosite inhibitor project, biochemical, FRET peptide substrate, recombinant human ADAM10 (AID 743259).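 Also: ADAM10 enzyme cleaving a FRET peptide substrate.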
The target in assay [17] is Disintegrin and metalloproteinase domain-containing protein 17 (Homo sapiens, UniProt P78536). Put plainly: exosite inhibitors of ADAM17, dose response, biochemical (AID 743260).
Chain of Disintegrin and metalloproteinase domain-containing protein 17 (P78536 whole entry, the tested form may be a part): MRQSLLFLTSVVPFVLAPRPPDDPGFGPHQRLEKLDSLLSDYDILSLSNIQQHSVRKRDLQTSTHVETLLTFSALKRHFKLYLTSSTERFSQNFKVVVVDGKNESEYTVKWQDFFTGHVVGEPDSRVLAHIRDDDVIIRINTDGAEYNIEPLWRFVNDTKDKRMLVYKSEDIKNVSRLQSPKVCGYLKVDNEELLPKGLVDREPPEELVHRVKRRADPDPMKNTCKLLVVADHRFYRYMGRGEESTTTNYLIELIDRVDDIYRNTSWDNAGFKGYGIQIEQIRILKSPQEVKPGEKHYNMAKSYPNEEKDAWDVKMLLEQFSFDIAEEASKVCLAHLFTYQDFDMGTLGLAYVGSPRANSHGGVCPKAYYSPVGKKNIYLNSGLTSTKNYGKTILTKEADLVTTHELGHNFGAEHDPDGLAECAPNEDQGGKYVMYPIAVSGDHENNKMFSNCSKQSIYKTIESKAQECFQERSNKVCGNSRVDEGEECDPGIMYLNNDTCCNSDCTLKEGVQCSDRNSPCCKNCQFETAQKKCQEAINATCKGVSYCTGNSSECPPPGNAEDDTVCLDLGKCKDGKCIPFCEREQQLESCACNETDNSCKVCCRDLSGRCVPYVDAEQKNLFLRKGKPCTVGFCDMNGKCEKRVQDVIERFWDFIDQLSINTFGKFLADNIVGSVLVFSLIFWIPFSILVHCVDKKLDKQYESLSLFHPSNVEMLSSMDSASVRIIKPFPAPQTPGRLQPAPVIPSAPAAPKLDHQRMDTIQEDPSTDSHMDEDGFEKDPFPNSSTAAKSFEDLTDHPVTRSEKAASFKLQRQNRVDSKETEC
For another assay, the target named is T5, Streptokinase A (Streptococcus pyogenes serotype M1, UniProt P10520).
T5 sequence (P10520 whole entry): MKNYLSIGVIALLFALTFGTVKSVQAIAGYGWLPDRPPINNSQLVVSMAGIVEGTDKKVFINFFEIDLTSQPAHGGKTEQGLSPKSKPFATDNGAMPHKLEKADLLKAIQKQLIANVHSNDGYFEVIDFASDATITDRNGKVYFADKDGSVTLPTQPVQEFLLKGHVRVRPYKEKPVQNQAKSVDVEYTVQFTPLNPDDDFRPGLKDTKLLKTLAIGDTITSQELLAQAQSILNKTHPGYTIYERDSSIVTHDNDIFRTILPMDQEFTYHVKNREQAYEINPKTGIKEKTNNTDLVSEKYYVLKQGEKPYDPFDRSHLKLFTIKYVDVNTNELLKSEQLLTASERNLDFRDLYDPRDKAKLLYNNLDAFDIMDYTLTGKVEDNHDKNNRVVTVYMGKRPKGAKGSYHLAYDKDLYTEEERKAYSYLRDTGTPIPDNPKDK
The assay is described as follows: S. pyogenes streptokinase expression inhibitors, potency, dose response, plasminogen activation absorbance, OD405 (AID 1914).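 Also: secreted streptokinase activity via plasminogen activation per viability signal from cell pellet.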 In kind it is functional, Streptococcus pyogenes M1 GAS.

Assay [18] concerns the target Long-chain-fatty-acid--AMP ligase FadD28 (Mycobacterium tuberculosis, UniProt P9WQ59). Put plainly: Fluorescence polarization aasay to screen for inhibitors that compete for the binding of FadD28 to a bisubstrate Measured in Biochemical System Using Plate Reader - 2147-01_Inhibitor_Dose_CherryPick_Activity. In kind it is functional, Mycobacterium tuberculosis H37Rv. For orientation: Fluorescence polarisation rises when a labelled molecule tumbles more slowly, as on binding a larger partner.

The target of assay [19] is Induced myeloid leukemia cell differentiation protein Mcl-1 (Homo sapiens, UniProt Q07820). In kind it is functional.
Another assay relates to Streptococcus. Put plainly: Group A Streptococcus viability loss, dose response, counter-screen for streptokinase expression inhibitor project, luminescence, BacTiterGlo (AID 1915).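 Also: potency for reduction of bacterial viability or growth.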 In kind it is functional, organism-based.
The subject of assay [20] is Streptococcus sp. 'group A'. The assay is described as follows: growth inhibition of control SK(-) GAS strain, dose response, counter-screen for streptokinase expression inhibitor project, luminescence, kanamycin, BacTiterGlo, confirmation (AID 1900). In kind it is functional, organism-based.
The next assay addresses Genome polyprotein (dengue virus type 2, UniProt P29990). Put plainly: Dengue-2 NS5 methyltransferase inhibitors, primary screen, biochemical, confirmation dose response (AID 588689). In kind it is functional.
Assay [21] is described as follows: LGR2 antagonists, dose response, cell-based, HEK293, CRE-luciferase reporter, cherry pick (AID 743342). In kind it is functional.
For assay [22], the target named is Small ubiquitin-related modifier 2 (Homo sapiens, UniProt P61956). Put plainly: inhibitors of SUMO2 protein-protein interaction, dose response, selectivity assay for SUMO1 interaction inhibitor project, biochemical, FRET, human SUMO2, uHTS hits (AID 624384). In kind it is functional. The conditions noted are these: read-out: IC50_Mean.
Chain of Small ubiquitin-related modifier 2 (P61956 whole entry): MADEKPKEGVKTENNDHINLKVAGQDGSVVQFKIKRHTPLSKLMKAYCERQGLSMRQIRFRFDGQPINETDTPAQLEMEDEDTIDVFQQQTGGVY
For assay [23], the target named is T6, Small ubiquitin-related modifier 1 (Homo sapiens, UniProt P63165). Put plainly: inhibitors of SUMO1 peptide binding, dose response, biochemical, fluorescence polarization, uHTS hits (AID 624382). The conditions noted are these: read-out: IC50_Mean. In kind it is functional.
T6 sequence (P63165 whole entry): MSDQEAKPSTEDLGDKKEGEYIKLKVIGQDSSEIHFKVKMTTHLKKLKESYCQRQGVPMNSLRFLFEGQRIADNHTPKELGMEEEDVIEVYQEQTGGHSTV
Assay [24] has as its target T6, Small ubiquitin-related modifier 1. Put plainly: inhibitors of SUMO1 partner interactions, dose response, biochemical, FRET (AID 624383). In kind it is functional. The conditions noted are these: read-out: IC50_Mean.
Assay [25] concerns the target Acyl-protein thioesterase 2 (Homo sapiens, UniProt O95372). The assay is described as follows: Late stage assay provider results from the probe development effort to identify selective inhibitors of LYPLA2: fluorescence-based biochemical dose-response assay.

SMILES strings stand for the structures. Active and inactive are the calls of the source. Some results are limits rather than exact numbers.

These results are taken from ChEMBL document CHEMBL1201862, “PubChem BioAssay data set” (2004).

T3 sequence (P65502 whole entry): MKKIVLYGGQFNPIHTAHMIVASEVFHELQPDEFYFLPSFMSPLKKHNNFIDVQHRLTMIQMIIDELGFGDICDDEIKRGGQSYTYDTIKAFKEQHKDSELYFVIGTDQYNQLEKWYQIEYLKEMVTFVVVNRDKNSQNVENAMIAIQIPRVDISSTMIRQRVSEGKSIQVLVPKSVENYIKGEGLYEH
T2 sequence (P35372 whole entry): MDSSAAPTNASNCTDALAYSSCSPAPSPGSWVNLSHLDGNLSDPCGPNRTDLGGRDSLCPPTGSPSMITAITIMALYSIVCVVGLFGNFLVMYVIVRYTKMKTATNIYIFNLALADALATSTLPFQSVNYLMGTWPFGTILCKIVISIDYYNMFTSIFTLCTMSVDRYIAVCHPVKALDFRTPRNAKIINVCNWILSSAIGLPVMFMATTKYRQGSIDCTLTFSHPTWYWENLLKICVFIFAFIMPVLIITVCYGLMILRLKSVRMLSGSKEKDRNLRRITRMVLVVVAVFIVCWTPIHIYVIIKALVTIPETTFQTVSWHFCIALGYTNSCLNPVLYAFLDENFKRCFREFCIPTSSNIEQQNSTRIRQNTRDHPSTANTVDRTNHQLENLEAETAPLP
Chain of Genome polyprotein (P29990 2492-3391 limits assumed): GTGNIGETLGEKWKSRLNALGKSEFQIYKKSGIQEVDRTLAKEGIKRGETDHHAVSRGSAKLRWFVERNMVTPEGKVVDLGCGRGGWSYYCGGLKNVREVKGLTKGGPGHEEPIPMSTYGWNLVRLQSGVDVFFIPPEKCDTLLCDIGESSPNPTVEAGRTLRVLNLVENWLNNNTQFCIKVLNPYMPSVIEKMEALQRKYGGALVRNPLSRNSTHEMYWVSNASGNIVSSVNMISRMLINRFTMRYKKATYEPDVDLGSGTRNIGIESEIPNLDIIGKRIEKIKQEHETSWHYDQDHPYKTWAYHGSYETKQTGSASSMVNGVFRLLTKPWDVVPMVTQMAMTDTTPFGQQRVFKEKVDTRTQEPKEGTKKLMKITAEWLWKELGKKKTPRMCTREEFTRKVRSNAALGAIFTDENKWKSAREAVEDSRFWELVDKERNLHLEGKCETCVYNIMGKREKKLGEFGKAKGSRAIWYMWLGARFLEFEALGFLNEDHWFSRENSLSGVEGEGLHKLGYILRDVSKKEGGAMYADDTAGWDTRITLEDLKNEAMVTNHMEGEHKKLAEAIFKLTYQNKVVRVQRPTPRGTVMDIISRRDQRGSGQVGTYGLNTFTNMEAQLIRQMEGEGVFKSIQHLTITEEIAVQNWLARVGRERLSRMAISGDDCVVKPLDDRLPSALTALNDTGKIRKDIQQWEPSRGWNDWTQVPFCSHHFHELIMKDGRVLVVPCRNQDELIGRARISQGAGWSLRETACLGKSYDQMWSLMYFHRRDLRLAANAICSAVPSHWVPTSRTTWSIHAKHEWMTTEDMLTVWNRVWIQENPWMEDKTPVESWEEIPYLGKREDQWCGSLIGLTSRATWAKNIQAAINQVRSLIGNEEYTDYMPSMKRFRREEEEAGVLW
Chain of 5-hydroxytryptamine receptor 2A (P35363 whole entry): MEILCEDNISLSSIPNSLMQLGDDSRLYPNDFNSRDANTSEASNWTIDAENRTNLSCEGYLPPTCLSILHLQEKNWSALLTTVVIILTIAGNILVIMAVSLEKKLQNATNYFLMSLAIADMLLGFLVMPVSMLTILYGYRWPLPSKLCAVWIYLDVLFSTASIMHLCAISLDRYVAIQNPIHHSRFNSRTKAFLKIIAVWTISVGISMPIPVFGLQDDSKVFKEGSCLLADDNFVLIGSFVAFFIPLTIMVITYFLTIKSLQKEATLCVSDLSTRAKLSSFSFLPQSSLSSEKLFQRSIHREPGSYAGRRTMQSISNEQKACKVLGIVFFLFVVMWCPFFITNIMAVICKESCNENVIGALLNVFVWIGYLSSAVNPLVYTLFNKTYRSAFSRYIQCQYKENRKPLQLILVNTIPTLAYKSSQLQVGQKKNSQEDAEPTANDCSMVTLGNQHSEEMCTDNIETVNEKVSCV
Chain of Long-chain-fatty-acid--AMP ligase FadD28 (P9WQ59 whole entry): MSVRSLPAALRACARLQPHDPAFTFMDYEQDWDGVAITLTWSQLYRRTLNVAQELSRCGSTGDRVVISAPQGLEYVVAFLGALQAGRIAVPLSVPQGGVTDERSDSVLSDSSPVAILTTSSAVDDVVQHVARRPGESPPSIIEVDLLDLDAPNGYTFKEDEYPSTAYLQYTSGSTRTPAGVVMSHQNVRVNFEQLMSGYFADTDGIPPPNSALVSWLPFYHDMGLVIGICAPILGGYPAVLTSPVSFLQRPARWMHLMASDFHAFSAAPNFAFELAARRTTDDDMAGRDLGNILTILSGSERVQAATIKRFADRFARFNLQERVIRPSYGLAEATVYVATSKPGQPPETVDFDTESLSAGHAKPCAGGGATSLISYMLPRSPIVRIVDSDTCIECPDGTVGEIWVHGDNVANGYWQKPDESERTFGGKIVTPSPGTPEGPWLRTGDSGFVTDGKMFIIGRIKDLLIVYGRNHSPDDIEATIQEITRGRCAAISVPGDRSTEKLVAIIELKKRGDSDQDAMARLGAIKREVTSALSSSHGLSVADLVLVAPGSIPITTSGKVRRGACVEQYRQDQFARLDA
Chain of Acyl-protein thioesterase 2 (O95372 whole entry): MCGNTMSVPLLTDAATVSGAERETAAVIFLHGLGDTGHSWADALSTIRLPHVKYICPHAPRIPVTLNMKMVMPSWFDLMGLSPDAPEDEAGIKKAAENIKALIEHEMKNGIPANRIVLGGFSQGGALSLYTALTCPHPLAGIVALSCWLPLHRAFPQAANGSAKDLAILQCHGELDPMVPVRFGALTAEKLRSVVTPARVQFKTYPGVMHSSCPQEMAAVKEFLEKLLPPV

For orientation: EC50 means the concentration at which the effect is half-maximal. By AC50 is commonly meant the midpoint of the concentration-response curve, whichever way the signal moves. One may read the CC50 as the concentration that lowers cell viability or growth by half. Regarding `CCOc1ccc(Nc2c3ccccc3nc3ccccc23)cc1`, the EC50 in assay [1] was > 92.5 µM (inactive); on Mu-type opioid receptor [4], 43.8 µM (inactive); in [6], > 92.5 µM (inactive). The AC50 in assay [2] was 7.28 µM (active); with INS1 it was 5.05 µM (active); in assay [3] it was 1.57 µM (active); in assay [5], 46.9 µM (active). For the same molecule, in the assay on Vero, the CC50 was 6.47 µM (active).
Take `CNc1ccccc1C(C)(C)c1cc(-c2cccc(Br)c2)no1`: the IC50 on Protein Wnt-3a is 1.8 µM (active); in assay [9], > 80 µM (inactive). For the same molecule, the AC50 in assay [7] is 9.45 µM (active); in [8], 2 µM (active); in assay [10] it was 44.5 µM (active).
On to `Cc1ccc(S(=O)(=O)Nc2ccc(Nc3nccn4c(-c5ccc6ccccc6c5)cnc34)cc2)cc1`, for which the IC50 in [11] is 9.78 µM (active); in assay [12], 16.3 µM (active).
With `Cc1cccc(C)c1-n1nnnc1C(C1CC1)N1CCN(C/C=C/c2ccccc2)CC1` (configuration not stated), the 50% effective concentration (EC50) in [13] is 0.94 µM (active); on Mu-type opioid receptor [14], 92.6 µM (inactive).
With `CN1OC[C@@H]2CN[C@H](c3ccc(-c4cccc(F)c4)cc3)C[C@@H]21`, the IC50 (in assay [15]; in the assay “cells”) was > 67.5 µM (inactive) in each case.
On to `Cc1[nH]n(-c2ncc(-c3ccccc3)s2)c(=O)c1C(c1ccc(Br)cc1)C(C#N)C#N` (configuration not stated), for which the IC50 in assay [16] was 10.6 µM (inactive); in [17], > 69.5 µM (inactive); in [19] it was 4.67 µM (active); on Genome polyprotein, 22.3 µM (active). Moreover, the EC50 on Streptokinase A is > 150 µM (not active); in the assay with Streptococcus, 5.75 µM (active); in assay [20], 3.39 µM (active). Also, the AC50 in [18] is 35.5 µM (active).
As for `C[C@H](CO)N1C[C@H](C)[C@H](CN(C)C(=O)Nc2ccc(F)cc2)OCCCC[C@H](C)Oc2ccc(NC(=O)NC3CCCCC3)cc2C1=O`, the AC50 in assay [21] was 8.05 µM (active).
For the molecule `N#C/C(=C(\O)Nc1cccc(Cl)c1)c1nc2ccccc2[nH]1`, the IC50 is > 66 µM (inactive) in assay [22], 66 µM (inactive) in assay [23] and 52.6 µM (inactive) in [24].
As to `O=C(CN1CCN(C(=O)c2ccco2)CC1)Nc1cc(C(F)(F)F)ccc1Cl`, in assay [25], the IC50 is > 10 µM (inactive).
